In patent publication US20230143612A1 (Arbutus Biopharma Corporation, priority 2020, published 2023):

target: PD-L1 His protein / PD-1 Fc protein (Homo sapiens, UniProt Q9NZQ7); test: HTRF Assay (PD-1/PD-L1 interaction); type: binding; conditions: PD-L1 His 6 nM, PD-1 Fc 6 nM
Description: PD-L1 His protein was prepared and added at the final concentration of 6 nM in the White opaque 384 well plate (Corning cat #3824BC). PD-L1 small molecule inhibitors were diluted by 3-fold starting from 20 μM and a final concentration of 0.001 μM and added to the well. PD-1 Fc protein was added at the final concentration of 6 nM. PD-L1 His protein, PD-L1 small molecule inhibitors, and PD1 Fc proteins were added to the well in this order, with each 5 μl volume, and were incubated for 15 minutes at room temperature. PAb anti-Human IgG-XL665 (Cisbio, cat #61HFCXLA) and Mab anti-6HIS Tb cryptate Gold (Cisbio, cat #61HI2TLA) were mixed at 6.7 nM and 0.35 nM respectively, and total 5 μl volume of mixture was added to the well and incubated at room temperature for 1 hour. The plate was read using PerkinElmer Envision plate reader and data was analyzed by Prism 6 software.

PD-L1 His protein / PD-1 Fc protein, sequence (Q9NZQ7 19-238 limits assumed): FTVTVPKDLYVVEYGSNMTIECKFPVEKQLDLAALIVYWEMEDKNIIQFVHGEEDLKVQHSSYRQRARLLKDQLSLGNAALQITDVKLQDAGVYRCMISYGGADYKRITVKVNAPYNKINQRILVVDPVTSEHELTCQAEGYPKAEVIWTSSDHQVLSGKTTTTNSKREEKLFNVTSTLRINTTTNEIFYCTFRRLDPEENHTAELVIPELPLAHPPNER

Question: For `COc1nc(-c2cccc(-c3cccc(-c4ccn5c(=O)c(CN6CCNC(=O)CC6)cnc5c4)c3Cl)c2Cl)ccc1CNC[C@@H]1CCC(=O)N1` [Example 327, (S)-8-(2,2′-Dichloro-3′-(6-methoxy-5-((((5-oxopyrrolidin-2-yl)methyl)-amino)methyl)-pyridin-2-yl)-[1,1′-biphenyl]-3-yl)-3-((5-oxo-1,4-diazepan-1-yl)methyl)-4H-pyrido[1,2-a]pyrimidin-4-one], which IC50 is on record?
Answer: The IC50 was 0.1 nM.

Question: Which IC50 does the source give for `COc1nc(-c2cccc(-c3cccc(-c4ccn5c(=O)c(CN[C@H]6C[C@](C)(O)C6)cnc5c4)c3Cl)c2Cl)ccc1CNC[C@@H]1CCC(=O)N1` [Example 143, 8-(2,2′-Dichloro-3′-(6-methoxy-5-(((((S)-5-oxopyrrolidin-2-yl)methyl)amino)methyl)pyridin-2-yl)-[1,1′-biphenyl]-3-yl)-3-((((1r,3r)-3-hydroxy-3-methylcyclobutyl)amino)methyl)-4H-pyrido[1,2-a]pyrimidin-4-one] here?
Answer: The IC50 was 1.8 nM.

Question: For `COc1nc(-c2cccc(-c3cccc(-c4ccn5c(=O)c(CNCC6(C)COC6)cnc5c4)c3Cl)c2Cl)ccc1CNC[C@@H]1CCC(=O)N1` [Example 246, (S)-8-(2,2′-dichloro-3′-(6-methoxy-5-((((5-oxopyrrolidin-2-yl)-methyl)amino)-methyl)pyridin-2-yl)-[1,1′-biphenyl]-3-yl)-3-((((3-methyloxetan-3-yl)-methyl)-amino)-methyl)-4H-pyrido[1,2-a]pyrimidin-4-one], which IC50 is on record?
Answer: The IC50 was 6.7 nM.

Question: For `Cc1c(COc2cc(OCc3cncc(C#N)c3)c(CNCCO)cc2Cl)cccc1-c1cccc(-c2ccn3c(=O)c(CNCCO)ccc3c2)c1C` [Example 9, 5-((4-Chloro-2-(((2-hydroxyethyl)amino)methyl)-5-((3′-(3-(((2-hydroxyethyl)amino)methyl)-4-oxo-4H-quinolizin-8-yl)-2,2′-dimethyl-[1,1′-biphenyl]-3-yl)methoxy)phenoxy)methyl)nicotinonitrile], which IC50 is on record?
Answer: Its IC50 is 1.1 nM.

Question: With `COc1nc(-c2cccc(-c3cccc(-c4ccn5c(=O)c(CN6C[C@H](O)C[C@H]6C(=O)O)cnc5c4)c3Cl)c2Cl)ccc1CNC[C@@H]1CCC(=O)N1` [Example 166, (2S,4R)-1-((8-(2,2′-Dichloro-3′-(6-methoxy-5-(((((S)-5-oxopyrrolidin-2-yl)methyl)amino)methyl)pyridin-2-yl)-[1,1′-biphenyl]-3-yl)-4-oxo-4H-pyrido[1,2-a]pyrimidin-3-yl)methyl)-4-hydroxypyrrolidine-2-carboxylic acid] as the compound, how does the IC50 read?
Answer: Its IC50 is 0.1 nM.

Question: With `COc1nc(-c2cccc(-c3cccc(-c4ccn5c(=O)c(CNC[C@@H]6CCC(=O)N6)cnc5c4)c3Cl)c2Cl)ccc1CN[C@@H](CO)C(=O)O` [Example 114, ((6-(2,2′-Dichloro-3′-(4-oxo-3-(((((S)-5-oxopyrrolidin-2-yl)methyl)amino)methyl)-4H-pyrido[1,2-a]pyrimidin-8-yl)-[1,1′-biphenyl]-3-yl)-2-methoxypyridin-3-yl)methyl)-L-serine] as the compound, how does the IC50 read?
Answer: Its IC50 is 0.6 nM.

Question: For `COc1nc(-c2cccc(-c3cccc(-c4ccn5c(=O)c(CNCCN6CCNC(=O)C6)cnc5c4)c3Cl)c2Cl)ccc1CNC[C@@H]1CCC(=O)N1` [Example 264, (S)-8-(2,2′-dichloro-3′-(6-methoxy-5-((((5-oxopyrrolidin-2-yl)methyl)-amino)-methyl)-pyridin-2-yl)-[1,1′-biphenyl]-3-yl)-3-(((2-(3-oxopiperazin-1-yl)ethyl)amino)methyl)-4H-pyrido[1,2-a]pyrimidin-4-one], which IC50 is on record?
Answer: The IC50 was 0.1 nM.

Question: `COc1nc(-c2cccc(-c3cccc(-c4ccc5nc(CNCCO)cn5n4)c3Cl)c2Cl)ccc1CNC[C@@H]1CCC(=O)N1` [Example 352, (5S)-5-[[[6-[2-Chloro-3-[2-chloro-3-[2-[(2-hydroxyethylamino)methyl]imidazo[1,2-b]pyridazin-6-yl]phenyl]phenyl]-2-methoxy-3-pyridyl]methylamino]methyl]pyrrolidin-2-one] was tested. Which IC50 did it give?
Answer: The IC50 was 0.5 nM.

Question: With `COc1cc(-c2ccc(CNC[C@@H]3CCC(=O)N3)c(OC)n2)c(Cl)c(-c2cccc(-c3ccn4c(=O)c(CNC[C@@H]5CCC(=O)N5)cnc4c3)c2Cl)c1` [Example 146, 8-(2,2′-Dichloro-5′-methoxy-3′-(6-methoxy-5-(((((S)-5-oxopyrrolidin-2-yl)methyl)amino)methyl)pyridin-2-yl)-[1,1′-biphenyl]-3-yl)-3-(((((S)-5-oxopyrrolidin-2-yl)methyl)amino)methyl)-4H-pyrido[1,2-a]pyrimidin-4-one] as the compound, how does the IC50 read?
Answer: The IC50 was 240 nM.

Question: With `COc1nc(-c2cccc(-c3cccc(-c4cc5c(=O)n(C)c(CN6CC7(CCC(=O)N7)C6)nn5c4)c3Cl)c2Cl)ccc1CNC[C@@H]1CCC(=O)N1` [Example 448, 6-[2-Chloro-3-[2-chloro-3-[6-methoxy-5-[[[(2S)-5-oxopyrrolidin-2-yl]methylamino]methyl]-2-pyridyl]phenyl]phenyl]-3-methyl-2-[(6-oxo-2,5-diazaspiro[3.4]octan-2-yl)methyl]pyrrolo [2,1-f][1,2,4]triazin-4-one] as the compound, how does the IC50 read?
Answer: Its IC50 is 6.8 nM.

Question: `COc1nc(-c2cccc(-c3cccc(-c4ccc5c(c4)N(C)CCNC5)c3Cl)c2Cl)ccc1CNC[C@@H]1CCC(=O)N1` [Example 364, (S)-5-((((6-(2,2′-Dichloro-3′-(1-methyl-2,3,4,5-tetrahydro-1H-benzo[e][1,4]diazepin-8-yl)-[1,1′-biphenyl]-3-yl)-2-methoxypyridin-3-yl)methyl)amino)methyl)pyrrolidin-2-one] was tested. Which IC50 did it give?
Answer: Its IC50 is 150 nM.

Question: Which IC50 does the source give for `COc1nc(-c2cccc(-c3cccc(-c4cc5c(=O)n(C)c(CN6CC7(COC7)C6)nn5c4)c3Cl)c2Cl)ccc1CNC[C@@H]1CCC(=O)N1` [Example 447, 6-[2-Chloro-3-[2-chloro-3-[6-methoxy-5-[[[(2S)-5-oxopyrrolidin-2-yl]methylamino]methyl]-2-pyridyl]phenyl]phenyl]-3-methyl-2-(2-oxa-6-azaspiro[3.3]heptan-6-ylmethyl)pyrrolo[2,1-f][1,2,4]triazin-4-one] here?
Answer: The IC50 was 5 nM.

Question: Which IC50 does the source give for `CNC(=O)C1CN(Cc2cnc3cc(-c4cccc(-c5cccc(-c6ccc(CNC[C@@H]7CCC(=O)N7)c(OC)n6)c5Cl)c4Cl)ccn3c2=O)C1` [Example 255, (S)-1-((8-(2,2′-Dichloro-3′-(6-methoxy-5-((((5-oxopyrrolidin-2-yl)methyl)amino)methyl)pyridin-2-yl)-[1,1′-biphenyl]-3-yl)-4-oxo-4H-pyrido[1,2-a]pyrimidin-3-yl)methyl)-N-methylazetidine-3-carboxamide] here?
Answer: Its IC50 is 0.1 nM.

Question: With `COc1nc(-c2cccc(-c3cccc(-c4ccc5oc(CNC[C@@H]6CCC(=O)N6)nc5c4)c3Cl)c2Cl)ccc1CNC[C@@H]1CCC(=O)N1` [Example 247, (S)-5-((((6-(2,2′-Dichloro-3′-(2-(((((S)-5-oxopyrrolidin-2-yl)methyl)amino)methyl)benzo[d]oxazol-5-yl)-[1,1′-biphenyl]-3-yl)-2-methoxypyridin-3-yl)methyl)amino)methyl)pyrrolidin-2-one] as the compound, how does the IC50 read?
Answer: Its IC50 is 450 nM.

Question: `COc1nc(-c2cccc(-c3cc(Cl)cc(-c4ccn5c(=O)c(CNC[C@@H]6CCC(=O)N6)cnc5c4)c3Cl)c2Cl)ccc1CNC[C@@H]1CCC(=O)N1` [Example 141, 3-(((((S)-5-Oxopyrrolidin-2-yl)methyl)amino)methyl)-8-(2,2′,5-trichloro-3′-(6-methoxy-5-(((((S)-5-oxopyrrolidin-2-yl)methyl)amino)methyl)pyridin-2-yl)-[1,1′-biphenyl]-3-yl)-4H-pyrido[1,2-a]pyrimidin-4-one] was tested. Which IC50 did it give?
Answer: The IC50 was 5.8 nM.
